Measured values taken from patent US20240226048A1, “METHODS OF TREATMENT USING BEMPEDOIC ACID” (Esperion Therapeutics, Inc., priority 2023, published 2024).

Assay: CLEAR OUTCOMES trial: LDL-cholesterol, hsCRP and other lipid/biomarker end points
Type: in vivo, human
Excerpt: The CLEAR OUTCOMES trial was a randomized, placebo-controlled, double-blind trial that enrolled patients at 1250 sites in 32 countries. An independent Data Monitoring Committee reviewed safety and efficacy data during the trial.
Patients 18 to 85 years of age were eligible for enrollment if they met either of two criteria for increased cardiovascular risk, a prior cardiovascular event (secondary prevention) or clinical features that placed them at high risk for a cardiovascular event (primary prevention). (Nicholls S, Lincoff A M, Bays H E, et al. Rationale and design of the CLEAR-outcomes trial: Evaluating the effect of bempedoic acid on cardiovascular events in patients with statin intolerance. Am Heart J. 2021 May; 235: 104-112) All patients provided written informed consent. Patients had to report statin intolerance due to an adverse effect that started or increased during statin therapy and resolved or improved after statin therapy was discontinued. Patients could be enrolled if they tolerated a very low average daily statin dose (e.g., an average daily dose of rosuvastatin <5 mg, atorvastatin <10 mg, simvastatin <10 mg, lovastatin <20 mg, pravastatin <40 mg, fluvastatin <40 mg, or pitavastatin <2 mg). Other lipid-lowering therapies were permitted, including ezetimibe, niacin, bile acid resins, fibrates, and/or proprotein convertase subtilisin kexin type 9 (PCSK9) inhibitors. Full inclusion and exclusion criteria are provided in Nicholls et al. (Am Heart J. 2021).
Eligible patients entered a 4-week run-in period during which patients were treated with single-blind placebo. If patients were intolerant to placebo treatment or if adherence was <80% by tablet count, they were not eligible for randomization. Patients who successfully completed the run-in period were randomly assigned in a 1:1 ratio to receive bempedoic acid at an oral dose of 180 mg or matching placebo, administered daily. Beginning 6 months after enrollment, the central laboratory notified the investigator if the patient's LDL-cholesterol level was ≥25% higher than baseline. These patients were counseled on healthy dietary guidelines and reminded to take all lipid-regulating medications. If repeat testing confirmed that LDL-cholesterol value met the threshold criteria, the provider could adjust the lipid-lowering treatment regimen per standard of care and local guidelines.
This was an event-driven trial designed to provide at least 90% power to detect a 15% relative risk reduction for the primary composite end point at an overall two-sided significance level of 0.05. The trial required a minimum of 1620 primary composite events with >24 months of follow-up for all patients and at least 810 first key secondary end points. The average treatment duration was estimated to be 42 months and a lost-to-follow-up rate of 1% per year. Assuming a 3.59% annual event rate in the placebo group, enrollment of 12,600 patients was required, subsequently amended to 14,000. There were no interim efficacy analyses. A hierarchical approach was prespecified to evaluate sequentially each of the six key secondary efficacy end points with statistical significance at each step required to test the next hypothesis, thereby preserving the study-wise Type I error rate at 5%. All analyses were based on the intent-to-treat principle. The primary efficacy end point was analyzed using Cox proportional hazards model with treatment as a factor to generate the hazard ratio (HR) and 95% confidence interval (CI). The p-value was obtained from a log-rank test.

[1] = Inadequately Controlled Diabetes at Baseline, median
[2] = Inadequately Controlled Diabetes at Baseline, observed mean
[3] = median, 180 mg oral daily, N = 6992
[4] = observed mean, 180 mg oral daily, N = 6992

Structure (SMILES): CC(C)(CCCCCC(O)CCCCCC(C)(C)C(=O)O)C(=O)O [Bempedoic Acid, Bempedoic acid]
- Median change from baseline to month 6 in hsCRP (180 mg oral daily, N = 6992): −22.2%
- Change from baseline to Month 6 in fasting glucose (All patients, median): -1.0 mg/dL
- Change from baseline to Month 12 in fasting glucose (All patients, median): 0.0 mg/dL
- Change from baseline to Month 6 in HbA1c (%) (All patients, observed mean): −0.003%
- Change from baseline to Month 12 in HbA1c (%) (All patients, observed mean): 0.04%
- Change from baseline to Month 6 in fasting glucose [1]: -4.0 mg/dL
- Change from baseline to Month 12 in fasting glucose [1]: -2.75 mg/dL
- Change from baseline to Month 6 in HbA1c (%) [2]: −0.20%
- Change from baseline to Month 12 in HbA1c (%) [2]: −0.06%
- Change from baseline to month 12 in HbA1C in patients with inadequately controlled type 2 diabetes mellitus (adjusted for baseline HbA1c, pattern-mixed model, 180 mg oral daily): −0.04%
- Mean change from baseline to month 6 in mean LDL-C (adjusted for baseline LDL-C, pattern-mixed model, 180 mg oral daily, N = 6992): −21.1%
- reduction of hsCRP (after 6 months treatment, compared with placebo, median baseline 2.3 mg/L): 21.6%
- Change from baseline to month 12 in HbA1C in patients with inadequately controlled type 2 diabetes mellitus, Difference (95% CI) (difference vs placebo): −0.03%
- Mean change from baseline to month 6 in mean LDL-C, Difference (95% CI) (difference vs placebo): −20.3%
- Median change from baseline to month 6 in hsCRP, Difference (95% CI) (difference vs placebo): −21.6%
- Percent change from baseline to Month 6 in triglycerides [3]: −3.4%
- Percent change from baseline to Month 12 in triglycerides [3]: −4.8%
- Percent change from baseline to Month 6 in HDL-C [4]: −5.8% ±
- Percent change from baseline to Month 6 in non-HDL-C [4]: −17.2% ±
- Percent change from baseline to Month 6 in total cholesterol [4]: −16.9% ±
- Percent change from baseline to Month 12 in HDL-C [4]: −5.7% ±
- Percent change from baseline to Month 12 in non-HDL-C [4]: −17.1% ±
- Percent change from baseline to Month 12 in total cholesterol [4]: −14.8% ±
- Percent change from baseline to Month 24 in non-HDL-C [4]: −16.2% ±
